# Legend:
# NMDAR2B = target: T1, NMDAR2B (Homo sapiens, UniProt Q13224); assay: NMDAR agonist assay, [3H]MK-801 binding, NMDAR2B expressing HEK cell membranes; format: biochemical; conditions: 50 μM glutamate
# T1 construct: expressed in transfected cells; host or cells: HEK cells (membrane extract)
# Procedure, shortened: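 Membranes from HEK cells (300 μg protein) preincubated 15 min with 50 μM glutamate plus compound (1×10^−15–1×10^−7 M) or 1 mM glycine, then with 0.3 μCi [3H]MK-801 for 15 min at 25° C. (nonequilibrium); filter-bound DPM, baseline-subtracted, expressed as % of 1 mM glycine; EC50 and % maximum from three-parameter fit.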
# NMDAR2C = target: T2, NMDAR2C (Homo sapiens, UniProt Q14957); assay: NMDAR agonist assay, [3H]MK-801 binding, NMDAR2C expressing HEK cell membranes; format: biochemical; conditions: 50 μM glutamate; relative to 1 mM glycine
# T2 construct: expressed in transfected cells; host or cells: HEK cells (membrane extract)
# Experimental: Assays were conducted as described by Moskal et al., “GLYX-13: a monoclonal antibody-derived peptide that acts as an N-methyl-D-aspartate receptor modulator,” Neuropharmacology, 49, 1077-87, 2005. These studies were designed to determine if the test compounds act to facilitate NMDAR activation in NMDAR2A, NMDAR2B, NMDAR2C or NMDAR2D expressing HEK cell membranes as measured by increases in [^3H]MK-801 binding.
# In the assay, 300 μg of NMDAR expressing HEK cell membrane extract protein was preincubated for 15 minutes at […] in the presence of saturating concentrations of glutamate (50 μM) and varying concentrations of test compound (1×10^−15M-1×10^−7M), or 1 mM glycine. Following the addition of 0.3 μCi of [3H]MK-801 (22.5 Ci/mmol), reactions were again incubated for 15 minutes at 25° C. (nonequilibrium conditions). Bound and free [3H]MK-801 were separated via rapid filtration using a Brandel apparatus.
# In analyzing the data, the DPM (disintegrations per minute) of [3H]MK-801 remaining on the filter were measured for each concentration of test compound or for 1 mM glycine. The DPM values for each concentration of a ligand (N=2) were averaged. The baseline value was determined from the best fit curve of the DPM values modeled using the GraphPad program and the log(agonist) vs. response (three parameters) algorithm was then subtracted from all points in the dataset. The % maximal [^3H]MK-801 binding was then calculated relative to that of 1 mM glycine: all baseline subtracted DPM values were divided by the average value for 1 mM glycine. The EC50 and % maximal activity were then obtained from the best fit curve of the % maximal [3H]MK-801 binding data modelled using the GraphPad program and the log(agonist) vs. response (three parameters) algorithm.
# The tables below summarize the results for the wild type […] NMDAR2A, NMDAR2B, NMDAR2C, and NMDAR2D, and whether the compound is not an agonist (−), is an agonist (+), or is a strong agonist (++), where column A is based on the % maximal [3H]MK-801 binding relative to 1 mM glycine (−=0; <100%=+; and >100%=++); and column B is based on log EC50 values (0=−; ≥1×10^−9 M (e.g., −8)=+; and <1×10^−9 M (e.g., −10)=++).
# [1] = IV pharmacokinetics in Sprague Dawley rats; format: in vivo; conditions: Sprague-Dawley, rat, in vivo, iv, 2 mg/kg, normal saline
# Experimental: Sprague Dawley rats were dosed intravenously using a normal saline formulation containing 2 mg/kg of the compounds identified in the below table. The table below summarizes the results of the IV pharmacokinetics.
# [2] = Oral pharmacokinetics in Sprague Dawley rats (plasma, brain, CSF); format: in vivo; conditions: rat, 10 mg/kg
# Experimental: In another experiment, Sprague Dawley rats were dosed per os (oral gavage) using a normal saline formulation containing 10 mg/kg of the compounds identified in the table below. Plasma, brain, and CSF samples were analyzed at various time points over a 24 hour period. The table below summarizes the results of the oral pharmacokinetics, where the first three values (Tmax, Cmax and AUClast) are plasma values.
# Sprague Dawley rats = assay: Porsolt forced swim test; format: in vivo
# [3] = Microsomal stability (Human); format: in vitro ADME; conditions: after 60 minutes
# Experimental: (§1) Microsomal stability of disclosed compounds was investigated. The following table indicates the percent of compound remaining after 60 minutes.
# [4] = Microsomal stability (Rat); format: in vitro ADME; conditions: after 60 minutes
# Experimental: as §1
# Plasma stability (Human) = format: in vitro ADME; conditions: after 60 minutes
# Experimental: (§2) Plasma stability of disclosed compounds was investigated. The following table indicates the percent of compound remaining after 60 minutes.
# Plasma stability (Rat) = format: in vitro ADME; conditions: after 60 minutes
# Experimental: as §2
# T1 sequence (Q13224 27-1484, species assumed, other chains not shown): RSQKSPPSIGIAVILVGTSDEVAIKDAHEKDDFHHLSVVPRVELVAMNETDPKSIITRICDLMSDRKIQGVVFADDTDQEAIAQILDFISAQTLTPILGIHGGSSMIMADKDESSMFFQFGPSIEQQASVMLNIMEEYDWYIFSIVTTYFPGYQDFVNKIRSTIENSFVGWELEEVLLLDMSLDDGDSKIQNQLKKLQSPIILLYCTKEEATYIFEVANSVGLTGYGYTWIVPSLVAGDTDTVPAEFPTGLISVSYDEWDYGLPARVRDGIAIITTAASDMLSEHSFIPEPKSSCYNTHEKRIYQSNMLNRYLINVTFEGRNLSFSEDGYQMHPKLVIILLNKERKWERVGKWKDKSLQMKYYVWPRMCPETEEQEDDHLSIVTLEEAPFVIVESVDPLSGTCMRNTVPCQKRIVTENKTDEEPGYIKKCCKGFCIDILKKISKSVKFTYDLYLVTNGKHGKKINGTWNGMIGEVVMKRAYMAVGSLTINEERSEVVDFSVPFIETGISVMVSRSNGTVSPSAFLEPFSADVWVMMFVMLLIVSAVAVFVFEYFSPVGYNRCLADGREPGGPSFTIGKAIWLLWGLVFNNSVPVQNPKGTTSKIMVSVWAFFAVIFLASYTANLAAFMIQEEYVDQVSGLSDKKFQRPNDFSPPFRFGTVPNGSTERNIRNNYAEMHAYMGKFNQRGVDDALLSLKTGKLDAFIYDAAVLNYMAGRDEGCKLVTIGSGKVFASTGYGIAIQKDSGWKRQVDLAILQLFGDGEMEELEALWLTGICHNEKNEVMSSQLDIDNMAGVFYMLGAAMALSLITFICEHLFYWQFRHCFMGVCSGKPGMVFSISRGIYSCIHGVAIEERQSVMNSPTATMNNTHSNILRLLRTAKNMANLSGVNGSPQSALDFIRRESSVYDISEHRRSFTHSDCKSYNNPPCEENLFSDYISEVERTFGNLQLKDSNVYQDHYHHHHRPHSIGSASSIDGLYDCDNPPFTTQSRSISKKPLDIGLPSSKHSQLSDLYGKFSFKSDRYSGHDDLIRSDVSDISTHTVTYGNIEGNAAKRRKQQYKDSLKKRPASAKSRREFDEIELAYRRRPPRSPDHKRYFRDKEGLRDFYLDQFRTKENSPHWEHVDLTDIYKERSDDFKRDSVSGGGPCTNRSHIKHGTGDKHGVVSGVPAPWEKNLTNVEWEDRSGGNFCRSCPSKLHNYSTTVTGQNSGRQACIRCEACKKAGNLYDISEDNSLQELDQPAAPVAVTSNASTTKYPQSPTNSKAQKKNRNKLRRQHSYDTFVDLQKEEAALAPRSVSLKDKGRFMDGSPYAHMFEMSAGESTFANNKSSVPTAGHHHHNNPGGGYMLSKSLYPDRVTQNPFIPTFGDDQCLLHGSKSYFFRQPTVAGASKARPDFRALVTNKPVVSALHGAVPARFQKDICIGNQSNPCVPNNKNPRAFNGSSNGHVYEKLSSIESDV
# T2 sequence (Q14957 20-1233, species assumed, other chains not shown): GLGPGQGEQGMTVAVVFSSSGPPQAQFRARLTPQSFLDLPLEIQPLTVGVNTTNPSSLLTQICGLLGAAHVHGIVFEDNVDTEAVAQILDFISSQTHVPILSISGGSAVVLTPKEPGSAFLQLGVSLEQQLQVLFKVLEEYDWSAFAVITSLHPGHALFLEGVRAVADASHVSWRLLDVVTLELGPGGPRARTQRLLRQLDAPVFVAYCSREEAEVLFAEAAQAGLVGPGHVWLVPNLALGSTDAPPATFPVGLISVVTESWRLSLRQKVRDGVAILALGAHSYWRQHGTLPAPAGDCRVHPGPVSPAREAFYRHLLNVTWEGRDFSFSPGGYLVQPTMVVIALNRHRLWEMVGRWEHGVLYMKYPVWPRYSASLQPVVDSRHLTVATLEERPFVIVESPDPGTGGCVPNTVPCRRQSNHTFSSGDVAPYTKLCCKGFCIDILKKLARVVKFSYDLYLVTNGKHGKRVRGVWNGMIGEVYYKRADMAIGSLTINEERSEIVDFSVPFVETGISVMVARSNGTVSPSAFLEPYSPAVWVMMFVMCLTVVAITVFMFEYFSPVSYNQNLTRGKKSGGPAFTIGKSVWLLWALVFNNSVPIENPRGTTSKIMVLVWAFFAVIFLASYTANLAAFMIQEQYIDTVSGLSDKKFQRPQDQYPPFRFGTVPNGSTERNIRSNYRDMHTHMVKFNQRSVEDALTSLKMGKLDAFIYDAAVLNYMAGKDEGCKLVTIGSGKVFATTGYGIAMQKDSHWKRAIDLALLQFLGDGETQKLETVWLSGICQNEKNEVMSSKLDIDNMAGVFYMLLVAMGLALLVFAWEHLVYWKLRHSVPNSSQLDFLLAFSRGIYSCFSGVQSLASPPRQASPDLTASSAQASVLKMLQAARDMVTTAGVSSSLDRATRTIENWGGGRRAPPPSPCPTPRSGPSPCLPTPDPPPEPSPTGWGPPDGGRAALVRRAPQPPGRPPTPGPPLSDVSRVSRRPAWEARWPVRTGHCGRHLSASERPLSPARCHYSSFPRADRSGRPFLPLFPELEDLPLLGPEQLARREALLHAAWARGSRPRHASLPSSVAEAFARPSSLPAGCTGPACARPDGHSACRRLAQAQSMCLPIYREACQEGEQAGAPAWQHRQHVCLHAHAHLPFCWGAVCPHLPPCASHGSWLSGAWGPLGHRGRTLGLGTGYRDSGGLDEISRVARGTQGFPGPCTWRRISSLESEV
smiles,measurement,setting,value
"O=C1NCC=CC[C@]12CCCN2 [GA, (R)-1,7-diazaspiro[4.6]undec-9-en-6-one]",EC50,NMDAR2B; read-out: NMDAR2B B: log EC50 (converted),≥ 1 nM
same,Emax,"NMDAR2B; relative to 1 mM glycine, read-out: NMDAR2B A: % maximal [3H]MK-801 binding relative to 1 mM glycine",< 100%
same,NMDAR2C A: % maximal [3H]MK-801 binding relative to 1 mM glycine,NMDAR2C,0%
same,AUC(0-t),[1],1250 ng·h/mL
same,clearance,[1],27 mL/min/kg
same,half-life,[1],3.6 h
same,Cmax,[1]; read-out: Cmax,1470 ng/mL
same,Vd,[1]; read-out: Vss,3.92 L/kg
same,Tmax,"[2]; Sprague-Dawley, po, per os, plasma, read-out: Tmax",0.5 h
same,AUC(0-t),"[2]; Sprague-Dawley, plasma, po, per os",3860 ng·h/mL
same,bioavailability,"[2]; Sprague-Dawley, plasma, po, per os 10 mg/kg",62%
same,Cmax,"[2]; Sprague-Dawley, plasma, po, per os, plasma, read-out: Cmax",1960 ng/mL
same,CSF Cmax,"[2]; per os, CSF",551.3 ng/mL
same,Brain Cmax,"[2]; per os, brain",3963.2 ng/mL
same,% reduction in float time,"Sprague Dawley rats; 1 wk post-dose, 0.00001 mg/kg",55%
same,Significance vs. vehicle,"Sprague Dawley rats; 1 wk post-dose, 0.00001 mg/kg",Yes
same,% reduction in float time,"Sprague Dawley rats; 1 wk post-dose, 0.001 mg/kg",71%
same,Significance vs. vehicle,"Sprague Dawley rats; 1 wk post-dose, 0.001 mg/kg",Yes
same,% reduction in float time,"Sprague Dawley rats; 1 wk post-dose, 0.1 mg/kg",72%
same,Significance vs. vehicle,"Sprague Dawley rats; 1 wk post-dose, 0.1 mg/kg",Yes
same,% reduction in float time,"Sprague Dawley rats; 1 wk post-dose, 10.0 mg/kg",44%
same,Significance vs. vehicle,"Sprague Dawley rats; 1 wk post-dose, 10.0 mg/kg",Yes
same,% reduction in float time,"Sprague Dawley rats; 1 h post-dose, 0.00001 mg/kg",29%
same,Significance vs. vehicle,"Sprague Dawley rats; 1 h post-dose, 0.00001 mg/kg",No
same,% reduction in float time,"Sprague Dawley rats; 1 h post-dose, 0.001 mg/kg",58%
same,Significance vs. vehicle,"Sprague Dawley rats; 1 h post-dose, 0.001 mg/kg",Yes
same,% reduction in float time,"Sprague Dawley rats; 1 h post-dose, 0.1 mg/kg",67%
same,Significance vs. vehicle,"Sprague Dawley rats; 1 h post-dose, 0.1 mg/kg",Yes
same,% reduction in float time,"Sprague Dawley rats; 1 h post-dose, 10.0 mg/kg",50%
same,Significance vs. vehicle,"Sprague Dawley rats; 1 h post-dose, 10.0 mg/kg",No
same,% reduction in float time,"Sprague Dawley rats; 24 h post-dose, 0.1 mg/kg",64%
same,Significance vs. vehicle,"Sprague Dawley rats; 24 h post-dose, 0.1 mg/kg",Yes
same,Microsomal (Human): percent of compound remaining,[3],94%
same,Microsomal (Rat): percent of compound remaining,[4],90%
same,Plasma (Human): percent of compound remaining,Plasma stability (Human),95%
same,Plasma (Rat): percent of compound remaining,Plasma stability (Rat),100%

# — US20210047324A1 (Aptinyx Inc., priority 2018, published 2021)
